Laboratory results from patent US12404285B2, “KRAS G12D proteolysis targeting chimeras” (PAQ Therapeutics Inc., priority 2022, dated 2025).

Target: T1, KRAS (G12D)-HiBit in AsPc-1-KRAS (G12D)-HiBit-KI cell (Homo sapiens, UniProt P01116, G12D)
T1 construct: host or cells: AsPc-1-KRAS (G12D)-HiBit-KI cells (knock-in line)
Test: G12D HiBit assay
Format: cell-based
Conditions: 24 hours compound treatment, absolute DC50, read-out: Average PHA DC50
Outline: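 AsPc-1 cells with HiBiT knocked into KRAS G12D, seeded at 5×10^3/well and held overnight, then treated 24 h with 10-point 3-fold dilutions (300 nM to 0.015 nM). Lytic Nano-Glo HiBiT luminescence expressed as % of 0.1% DMSO control; absolute DC50 from curve fit.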

T1 sequence (P01116 1-188 isoform P01116-2 G12D): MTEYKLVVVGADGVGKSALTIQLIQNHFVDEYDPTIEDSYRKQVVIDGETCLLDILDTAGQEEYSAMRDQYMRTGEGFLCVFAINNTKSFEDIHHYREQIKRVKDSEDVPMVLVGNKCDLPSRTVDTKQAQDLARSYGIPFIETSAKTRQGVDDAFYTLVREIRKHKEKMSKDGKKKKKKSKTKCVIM

Row | SMILES | DC50 [nM]
1 | C#Cc1c(F)ccc2cccc(-c3ncc4c(N5CC6CCC(C5)N6)nc(OC[C@@]56CCCN5[C@H](COC(=O)N5CCC(Cn7cc(-c8ccc9c(c8)n(C)c(=O)n9C8CCC(=O)NC8=O)nn7)CC5)CC6)nc4c3F)c12 (stereo partly drawn) [Compound 94, [(3S,8S)-8-[[4-(3,8-Diazabicyclo[3.2.1]octan-3-yl)-7-(8-ethynyl-7-fluoro-1-naphthyl)-8-fluoro-pyrido[4,3-d]pyrimidin-2-yl]oxymethyl]-1,2,3,5,6,7-hexahydropyrrolizin-3-yl]methyl 4-[[4-[1-(2,6-dioxo-3-piperidyl)-3-methyl-2-oxo-benzimidazol-5-yl]triazol-1-yl]methyl]piperidine-1-carboxylate] | ≥ 300
2 | C#Cc1c(F)ccc2cccc(-c3ncc4c(N5CC6CCC(C5)N6)nc(OC[C@@]56CCCN5[C@H](COC(=O)N5CCC(CCn7cc(-c8ccc9c(c8)n(C)c(=O)n9C8CCC(=O)NC8=O)nn7)CC5)CC6)nc4c3F)c12 (stereo partly drawn) [Compound 95, [(3S,8S)-8-[[4-(3,8-Diazabicyclo[3.2.1]octan-3-yl)-7-(8-ethynyl-7-fluoro-1-naphthyl)-8-fluoro-pyrido[4,3-d]pyrimidin-2-yl]oxymethyl]-1,2,3,5,6,7-hexahydropyrrolizin-3-yl]methyl 4-[2-[4-[1-(2,6-dioxo-3-piperidyl)-3-methyl-2-oxo-benzimidazol-5-yl]triazol-1-yl]ethyl]piperidine-1-carboxylate] | ≥ 300
3 | C#Cc1c(F)ccc2cccc(-c3ncc4c(N5CC6CCC(C5)N6)nc(OC[C@@]56CCCN5[C@H](COC(=O)N5CCC(Cn7cc(-c8cccc9c8n(C)c(=O)n9C8CCC(=O)NC8=O)nn7)CC5)CC6)nc4c3F)c12 (stereo partly drawn) [Compound 96, [(3S,8S)-8-[[4-(3,8-Diazabicyclo[3.2.1]octan-3-yl)-7-(8-ethynyl-7-fluoro-1-naphthyl)-8-fluoro-pyrido[4,3-d]pyrimidin-2-yl]oxymethyl]-1,2,3,5,6,7-hexahydropyrrolizin-3-yl]methyl 4-[[4-[1-(2,6-dioxo-3-piperidyl)-3-methyl-2-oxo-benzimidazol-4-yl]triazol-1-yl]methyl]piperidine-1-carboxylate] | ≥ 300
4 | C#Cc1c(F)ccc2cccc(-c3ncc4c(N5CC6CCC(C5)N6)nc(OC[C@@]56CCCN5[C@H](COC(=O)N5CCC(CCn7cc(-c8cccc9c8n(C)c(=O)n9C8CCC(=O)NC8=O)nn7)CC5)CC6)nc4c3F)c12 (stereo partly drawn) [Compound 97, [(3S,8S)-8-[[4-(3,8-Diazabicyclo[3.2.1]octan-3-yl)-7-(8-ethynyl-7-fluoro-1-naphthyl)-8-fluoro-pyrido[4,3-d]pyrimidin-2-yl]oxymethyl]-1,2,3,5,6,7-hexahydropyrrolizin-3-yl]methyl4-[2-[4-[1-(2,6-dioxo-3-piperidyl)-3-methyl-2-oxo-benzimidazol-4-yl]triazol-1-yl]ethyl]piperidine-1-carboxylate] | < 100
5 | C#Cc1c(F)ccc2cccc(-c3ncc4c(N5CC6CCC(C5)N6)nc(OC[C@@]56CCCN5[C@H](COC(=O)N5CCC(OC7CCN(c8ccc9c(c8)n(C)c(=O)n9C8CCC(=O)NC8=O)CC7)CC5)CC6)nc4c3F)c12 (stereo partly drawn) [Compound 98, [(3S,8S)-8-[[4-(3,8-Diazabicyclo[3.2.1]octan-3-yl)-7-(8-ethynyl-7-fluoro-1-naphthyl)-8-fluoro-pyrido[4,3-d]pyrimidin-2-yl]oxymethyl]-1,2,3,5,6,7-hexahydropyrrolizin-3-yl]methyl 4-[[1-[1-(2,6-dioxo-3-piperidyl)-3-methyl-2-oxo-benzimidazol-5-yl]-4-piperidyl]oxy]piperidine-1-carboxylate] | < 100
6 | C#Cc1c(F)ccc2cccc(-c3ncc4c(N5CC6CCC(C5)N6)nc(OC[C@@]56CCCN5[C@H](COC(=O)N5CCC(OC7CCN(c8cccc9c8n(C)c(=O)n9C8CCC(=O)NC8=O)CC7)CC5)CC6)nc4c3F)c12 (stereo partly drawn) [Compound 99, [(3S,8S)-8-[[4-(3,8-Diazabicyclo[3.2.1]octan-3-yl)-7-(8-ethynyl-7-fluoro-1-naphthyl)-8-fluoro-pyrido[4,3-d]pyrimidin-2-yl]oxymethyl]-1,2,3,5,6,7-hexahydropyrrolizin-3-yl]methyl 4-[[1-[1-(2,6-dioxo-3-piperidyl)-3-methyl-2-oxo-benzimidazol-4-yl]-4-piperidyl]oxy]piperidine-1-carboxylate] | < 100
7 | C#Cc1c(F)ccc2cccc(-c3ncc4c(N5CC6CCC(C5)N6)nc(OC[C@@]56CCCN5[C@H](COC(=O)N5CCC(CN7CC(Oc8cccc9c8n(C)c(=O)n9C8CCC(=O)NC8=O)C7)CC5)CC6)nc4c3F)c12 (stereo partly drawn) [Compound 100, [(3S,8S)-8-[[4-(3,8-diazabicyclo[3.2.1]octan-3-yl)-7-(8-ethynyl-7-fluoro-1-naphthyl)-8-fluoro-pyrido[4,3-d]pyrimidin-2-yl]oxymethyl]-1,2,3,5,6,7-hexahydropyrrolizin-3-yl]methyl 4-[[3-[1-(2,6-dioxo-3-piperidyl)-3-methyl-2-oxo-benzimidazol-4-yl]oxyazetidin-1-yl]methyl]piperidine-1-carboxylate] | < 100
8 | C#Cc1c(F)ccc2cccc(-c3ncc4c(N5CC6CCC(C5)N6)nc(OC[C@@]56CCCN5[C@H](COC(=O)N5CC(OCC7CCN(c8ccc9c(c8)n(C)c(=O)n9C8CCC(=O)NC8=O)CC7)C5)CC6)nc4c3F)c12 (stereo partly drawn) [Compound 101, [(3S,8S)-8-[[4-(3,8-Diazabicyclo[3.2.1]octan-3-yl)-7-(8-ethynyl-7-fluoro-1-naphthyl)-8-fluoro-pyrido[4,3-d]pyrimidin-2-yl]oxymethyl]-1,2,3,5,6,7-hexahydropyrrolizin-3-yl]methyl 3-[[1-[1-(2,6-dioxo-3-piperidyl)-3-methyl-2-oxo-benzimidazol-5-yl]-4-piperidyl]methoxy]azetidine-1-carboxylate] | < 100
9 | C#Cc1c(F)ccc2cccc(-c3ncc4c(N5CC6CCC(C5)N6)nc(OC[C@@]56CCCN5[C@H](COC(=O)N5CCC(COC7CN(c8ccc9c(c8)n(C)c(=O)n9C8CCC(=O)NC8=O)C7)CC5)CC6)nc4c3F)c12 (stereo partly drawn) [Compound 102, [(3S,8S)-8-[[4-(3,8-Diazabicyclo[3.2.1]octan-3-yl)-7-(8-ethynyl-7-fluoro-1-naphthyl)-8-fluoro-pyrido[4,3-d]pyrimidin-2-yl]oxymethyl]-1,2,3,5,6,7-hexahydropyrrolizin-3-yl]methyl4-[[1-[1-(2,6-dioxo-3-piperidyl)-3-methyl-2-oxo-benzimidazol-5-yl]azetidin-3-yl]oxymethyl]piperidine-1-carboxylate] | < 100
10 | C#Cc1c(F)ccc2cccc(-c3ncc4c(N5CC6CCC(C5)N6)nc(OC[C@@]56CCCN5[C@H](COC(=O)N5CC7CCC(C5)C7CN5CCC(c7ccc8c(c7)n(C)c(=O)n8C7CCC(=O)NC7=O)CC5)CC6)nc4c3F)c12 (stereo partly drawn) [Compound 103, [(3S,8S)-8-[[4-(3,8-Diazabicyclo[3.2.1]octan-3-yl)-7-(8-ethynyl-7-fluoro-1-naphthyl)-8-fluoro-pyrido[4,3-d]pyrimidin-2-yl]oxymethyl]-1,2,3,5,6,7-hexahydropyrrolizin-3-yl]methyl8-[[4-[1-(2,6-dioxo-3-piperidyl)-3-methyl-2-oxo-benzimidazol-5-yl]-1-piperidyl]methyl]-3-azabicyclo[3.2.1]octane-3-carboxylate] | < 100
11 | C#Cc1c(F)ccc2cccc(-c3ncc4c(N5CC6CCC(C5)N6)nc(OC[C@@]56CCCN5[C@H](COC(=O)N5CC(COC7CCN(c8ccc9c(c8)n(C)c(=O)n9C8CCC(=O)NC8=O)CC7)C5)CC6)nc4c3F)c12 (stereo partly drawn) [Compound 104, [(3S,8S)-8-[[4-(3,8-Diazabicyclo[3.2.1]octan-3-yl)-7-(8-ethynyl-7-fluoro-1-naphthyl)-8-fluoro-pyrido[4,3-d]pyrimidin-2-yl]oxymethyl]-1,2,3,5,6,7-hexahydropyrrolizin-3-yl]methyl 3-[[1-[1-(2,6-dioxo-3-piperidyl)-3-methyl-2-oxo-benzimidazol-5-yl]-4-piperidyl]oxymethyl]azetidine-1-carboxylate] | < 100
12 | C#Cc1c(F)ccc2cccc(-c3ncc4c(N5CC6CCC(C5)N6)nc(OC[C@@]56CCCN5[C@H](COC(=O)N5CCC(CCOCC#Cc7ccc8c(c7)n(C)c(=O)n8C7CCC(=O)NC7=O)CC5)CC6)nc4c3F)c12 (stereo partly drawn) [Compound 105, [(3S,8S)-8-[[4-(3,8-diazabicyclo[3.2.1]octan-3-yl)-7-(8-ethynyl-7-fluoro-1-naphthyl)-8-fluoro-pyrido[4,3-d]pyrimidin-2-yl]oxymethyl]-1,2,3,5,6,7-hexahydropyrrolizin-3-yl]methyl 4-[2-[3-[1-(2,6-dioxo-3-piperidyl)-3-methyl-2-oxo-benzimidazol-5-yl]prop-2-ynoxy]ethyl]piperidine-1-carboxylate] | < 100
13 | C#Cc1c(F)ccc2cccc(-c3ncc4c(N5CC6CCC(C5)N6)nc(OC[C@@]56CCCN5[C@H](COC(=O)N5CCC(CN7CCN(c8ccc9c(c8)n(C)c(=O)n9C8CCC(=O)NC8=O)CC7)CC5)CC6)nc4c3F)c12 (some centres unmarked) [Compound 106] | < 100
14 | C#Cc1c(F)ccc2cccc(-c3ncc4c(N5CC6CCC(C5)N6)nc(OC[C@@]56CCCN5[C@H](COC(=O)N5CCC(OCCC#Cc7cccc8c7n(C)c(=O)n8C7CCC(=O)NC7=O)CC5)CC6)nc4c3F)c12 (stereo partly drawn) [Compound 107, [(3S,8S)-8-[[4-(3,8-diazabicyclo[3.2.1]octan-3-yl)-7-(8-ethynyl-7-fluoro-1-naphthyl)-8-fluoro-pyrido[4,3-d]pyrimidin-2-yl]oxymethyl]-1,2,3,5,6,7-hexahydropyrrolizin-3-yl]methyl 4-[4-[1-(2,6-dioxo-3-piperidyl)-3-methyl-2-oxo-benzimidazol-4-yl]but-3-ynoxy]piperidine-1-carboxylate] | < 100
